Results published in patent US4912036A, “Rapid differentiation of bacteria using cyclic polypeptide antibiotics” (Eastman Kodak Company, priority 1986, dated 1990).

Legend:
[1] = system: S. aureus; experiment: Inhibition of RIND IX reduction by various cyclic polypeptide antibiotics; type: cell-based, Staphylococcus aureus; conditions: 635 nm
Protocol: The following materials were used in this example: stock solutions of RIND IX compound dispersion prepared as described above, glucose (10% in water), trimethyl-1,4-benzoquinone ETA (1.5 mg/ml methanol), and the antibiotics (1 mg/ml in dimethylsulfoxide). S. aureus cells were grown as described above. The final cell concentration in the assay mixture was about 4.3×10^8 cells/ml.
Test solutions were prepared by adding in the order: 1.2 ml of HEPES buffer, 50 μl glucose solution, 1.5 ml of RIND IX dispersion, 100 μl of antibiotic solution, 100 μl of cell suspension and 25 μl of ETA solution. Control solutions were prepared as described in Examples 2 and 3. Optical density readings (OD) were measured at 635 nm at 0 minutes and after incubation at 37° C. for 30 minutes for test and control solutions, and the change in density (ΔOD) was determined. Table VI below lists the results, expressed as corrected percent inhibition of the reduction of the RIND compound. The corrected percent inhibition is calculated by dividing the difference between the ΔOD obtained from the Cell Control without antibiotic and the ΔOD of the test solution, by ΔOD of the Cell Control without antibiotic. All readings were corrected by subtracting readings of the appropriate background Controls.
Solutions containing 2.9 ml HEPES, 50 μl of the antibiotic solution and 100 μl cell solution were incubated at 37° C. for 30 minutes, centrifuged for 10 minutes and decanted. The resulting pellet was then treated with 1.4 ml HEPES, 50 μl glucose solution, 1.5 ml RIND IX dispersion and 25 μl ETA solution, mixed well and the densities recorded as described above in Method 1. The corrected percent inhibition data was calculated as described in Method 1 above.

[2] = system: K. pneumoniae; experiment: MTT reduction solution assay, ΔOD 540 nm; type: cell-based, Klebsiella pneumoniae; conditions: K. pneumoniae (-) 5×10^7, tyrocidin 0.825 mg/ml, 37° C.
Protocol: (§1) These examples illustrate the differentiation of bacteria using a tetrazolium salt and phenolic dye as the reducible compounds and two cyclic polypeptide antibiotics according to the present invention. The tetrazolium salt was 3-(4,5-dimethyl-2-thiazolyl) -2,5-diphenyl-2H-tetrazolium bromide (MTT) which forms a colored formazan dye when reduced. The phenolic dye was 2,6-dichloroindophenol (DCIP) which forms a colorless species when reduced.
(§2) Solutions of the reducible compounds were prepared with the following: HEPES buffer (3 ml, 0.05 molar, pH 7.5), TRITON X-100 nonionic surfactant (1% concentration), glucose (50 μl of 10% in water), tryptose (50 μl of a 10% solution in water), MTT (25 μl of 5 mg/ml methanol) or DCIP (25 μl of 3 mg/ml methanol) and phenazine methosultate ETA (25 μl of 3 mg/ml methanol).
(§3) Test solutions were prepared from the following: reducible compound solution from above (200 μl), 50 μl of either gramicidin S solution (6 mg/ml methanol and 9 ml of buffer) or tyrocidin solution (100 mg/ml methanol and 8 ml of buffer) and 50 μl of cell suspension. […] The change in optical density (ΔOD) was determined after 30 minutes at 37° C. at 540 nm for the MTT assay and at 620 nm for the DCIP assay using a commercially available spectrophotometer.

[3] = system: E. coli; experiment: DCIP reduction solution assay, ΔOD 620 nm; type: cell-based, Escherichia coli; conditions: E. coli (-) 5×10^7, tyrocidin 0.825 mg/ml, 37° C.
Protocol: as §1, §2, §3

[4] = system: S. faecalis; experiment: DCIP reduction solution assay, ΔOD 620 nm; type: cell-based, Streptococcus faecalis; conditions: S. faecalis (+) 5×10^7, tyrocidin 0.825 mg/ml, 37° C.
Protocol: as §1, §2, §3

[5] = system: viable gram-positive and gram-negative bacteria; experiment: Differentiation in RIND XXIX solution assays, overall result; type: cell-based; conditions: gramicidin S 0.1 mg/ml, tyrocidin 3.3 mg/ml
Protocol: (§4) Each test solution contained the following: dispersion of RIND XXIX (25 μl) prepared as described above, glucose (400 μl of 10% aqueous solution), tryptose (400 μl of 10% aqueous solution), trimethyl-1,4-benzoquinone ETA (500 μl of 1.5 mg/ml methanol). Aliquots (200 μl) of the mixture were mixed with solutions of the antibiotics (50 μl). The cell suspensions (50 μl) were then added. The final concentration of gramcidin S and tyrocidin were 0.1 mg/ml and 3.3 mg/ml, respectively. The final cell concentration was about 5×10^7 cells/ml. Cell control solutions contained all reagents except antibiotics. Background controls consisted of both buffer and solution controls. The buffer control contained all reagents except antibiotics and cells. The solution control contained all reagents except cells.
(§5) The solutions were incubated at 37° C. for 30 minutes, and the change in fluorescence emission (Δ fluorescence) was determined as the difference between the readings taken when the solutions were first mixed and then after 30 minutes incubation. Measurements were made in a commercially available MICROFLUOR Reader (available from Dynatech Laboratories, Alexandria, Virginia, U.S.A.), modified with an excitation filter at 540 nm, an emission filter at 620 nm and a Xenon lamp.
This example illustrates the practice of this invention to identify a Proteus species in solution. Test solutions and cell control solutions were prepared and tested as described in Example 2 and 3 except that polymixin B was used at 0.01 mg/ml of methanol. The final cell concentration was about 5×10^7 cells/ml.

[6] = system: E. cloacae; experiment: RIND XXIX reduction solution assay, Δ fluorescence; type: cell-based, Enterobacter cloacae; conditions: E. cloacae (gram -) about 5×10^7 cells/ml, tyrocidin 3.3 mg/ml, 37° C.
Protocol: (§6) Bacterial suspensions were prepared by growing the cells in BHT broth to stationary phase overnight at 37° C. P. auruginosa was grown with agitation. About 40 ml of each overnight culture was centrifuged, decanted and washed once with 0.05 molar potassium phosphate buffer or 0.05 molar N-2-hydroxy-ethylpiperazine-N'-2-ethanesulfonic acid (HEPES) buffer, pH 7.8, and resuspended in buffer.
(§7) Dispersions containing RIND compounds were prepared by dissolving the RIND compound in N,N-dimethylformamide (DMF) at 16 mg compound per ml of solvent. An aliquot (250 μl) of the resulting solution was added to 500 μl of TRITON X-100 surfactant. This mixture was then added dropwise with stirring to 25 ml of 0.05 molar HEPES buffer. A dispersion of RIND XXIX was prepared similarly except that DMF was acidified with 0.1% sulfuric acid. Compositions containing water-compatible RIND compounds were prepared as described above except the surfactant was omitted.
as §4, with “The buffer control contained all reagents except antibiotics and cells. The solution control contained all reagents except cells.” left out
(§8) The solutions were incubated at 37° C. for 30 minutes, and the change in fluorescence emission (Δ fluorescence) was determined as the difference between the readings taken when the solutions were first mixed and then after 30 minutes incubation. Measurements were made in a commercially available MICROFLUOR Reader (available from Dynatech Laboratories, Alexandria, Virginia, U.S.A.), modified with an excitation filter at 540 nm, an emission filter at 620 nm and a Xenon lamp. […]

[7] = system: P. vulgaris; experiment: DCIP reduction solution assay, ΔOD 620 nm; type: cell-based, Proteus vulgaris; conditions: P. vulgaris (-) 5×10^7, tyrocidin 0.825 mg/ml, 37° C.
Protocol: as §1, §2, §3

[8] = system: P. aeruginosa; experiment: DCIP reduction solution assay, ΔOD 620 nm; type: cell-based, Pseudomonas aeruginosa; conditions: P. aeruginosa (-) 5×10^7, tyrocidin 0.825 mg/ml, 37° C.
Protocol: as §1, §2, §3

[9] = system: P. aeruginosa; experiment: RIND XXIX reduction solution assay, Δ fluorescence; type: cell-based, Pseudomonas aeruginosa; conditions: P. aeruginosa (gram -) about 5×10^7 cells/ml, tyrocidin 3.3 mg/ml, 37° C.
Protocol: as §6, §7
as §4, with “The buffer control contained all reagents except antibiotics and cells. The solution control contained all reagents except cells.” left out
as §8

[10] = system: S. aureus; experiment: DCIP reduction solution assay, ΔOD 620 nm; type: cell-based, Staphylococcus aureus; conditions: S. aureus (+) 5×10^7, tyrocidin 0.825 mg/ml, 37° C.
Protocol: as §1, §2, §3

[11] = system: E. coli; experiment: RIND XXIX reduction solution assay, Δ fluorescence; type: cell-based, Escherichia coli; conditions: E. coli (gram -) about 5×10^7 cells/ml, tyrocidin 3.3 mg/ml, 37° C.
Protocol: as §6, §7
as §4, with “The buffer control contained all reagents except antibiotics and cells. The solution control contained all reagents except cells.” left out
as §8

[12] = system: E. cloacae; experiment: DCIP reduction solution assay, ΔOD 620 nm; type: cell-based, Enterobacter cloacae; conditions: E. cloacae (-) 5×10^7, tyrocidin 0.825 mg/ml, 37° C.
Protocol: as §1, §2, §3

[13] = system: E. cloacae; experiment: MTT reduction solution assay, ΔOD 540 nm; type: cell-based, Enterobacter cloacae; conditions: E. cloacae (-) 5×10^7, tyrocidin 0.825 mg/ml, 37° C.
Protocol: as §1, §2, §3

[14] = system: S. faecalis; experiment: RIND XXIX reduction solution assay, Δ fluorescence; type: cell-based, Streptococcus faecalis; conditions: S. faecalis (gram +) about 5×10^7 cells/ml, tyrocidin 3.3 mg/ml, 37° C.
Protocol: as §6
(§9) Dispersions containing RIND compounds were prepared by dissolving the RIND compound in N,N-dimethylformamide (DMF) at 16 mg compound per ml of solvent. An aliquot (250 μl) of the resulting solution was added to 500 μl of TRITON X-100 surfactant. This mixture was then added dropwise with stirring to 25 ml of 0.05 molar HEPES buffer. A dispersion of RIND XXIX was prepared similarly except that DMF was acidified with 0.1% sulfuric acid. […]
as §5

[15] = system: P. vulgaris; experiment: MTT reduction solution assay, ΔOD 540 nm; type: cell-based, Proteus vulgaris; conditions: P. vulgaris (-) 5×10^7, tyrocidin 0.825 mg/ml, 37° C.
Protocol: as §1, §2, §3

[16] = system: P. aeruginosa; experiment: MTT reduction solution assay, ΔOD 540 nm; type: cell-based, Pseudomonas aeruginosa; conditions: P. aeruginosa (-) 5×10^7, tyrocidin 0.825 mg/ml, 37° C.
Protocol: as §1, §2, §3

[17] = system: S. faecalis; experiment: MTT reduction solution assay, ΔOD 540 nm; type: cell-based, Streptococcus faecalis; conditions: S. faecalis (+) 5×10^7, tyrocidin 0.825 mg/ml, 37° C.
Protocol: as §1, §2, §3

[18] = system: S. aureus; experiment: MTT reduction solution assay, ΔOD 540 nm; type: cell-based, Staphylococcus aureus; conditions: S. aureus (+) 5×10^7, tyrocidin 0.825 mg/ml, 37° C.
Protocol: as §1, §2, §3

[19] = system: K. pneumoniae; experiment: DCIP reduction solution assay, ΔOD 620 nm; type: cell-based, Klebsiella pneumoniae; conditions: K. pneumoniae (-) 5×10^7, tyrocidin 0.825 mg/ml, 37° C.
Protocol: as §1, §2, §3

[20] = system: K. pneumoniae; experiment: RIND XXIX reduction solution assay, Δ fluorescence; type: cell-based, Klebsiella pneumoniae; conditions: K. pneumoniae (gram -) about 5×10^7 cells/ml, tyrocidin 3.3 mg/ml, 37° C.
Protocol: as §6, §7
as §4, with “The buffer control contained all reagents except antibiotics and cells. The solution control contained all reagents except cells.” left out
as §8

[21] = system: E. coli; experiment: MTT reduction solution assay, ΔOD 540 nm; type: cell-based, Escherichia coli; conditions: E. coli (-) 5×10^7, tyrocidin 0.825 mg/ml, 37° C.
Protocol: as §1, §2, §3

[22] = system: S. aureus; experiment: RIND XXIX reduction solution assay, Δ fluorescence; type: cell-based, Staphylococcus aureus; conditions: S. aureus (gram +) about 5×10^7 cells/ml, tyrocidin 3.3 mg/ml, 37° C.
Protocol: as §6, §9, §5

[23] = system: P. vulgaris; experiment: RIND XXIX reduction solution assay, Δ fluorescence; type: cell-based, Proteus vulgaris; conditions: P. vulgaris (gram -) about 5×10^7 cells/ml, tyrocidin 3.3 mg/ml, 37° C.
Protocol: as §6, §7
as §4, with “The buffer control contained all reagents except antibiotics and cells. The solution control contained all reagents except cells.” left out
as §8

## ristocetin
[1]; Test Method 1 (antibiotic in the test solution), S. aureus about 4.3×10^8 cells/ml, 100 μl of 1 mg/ml antibiotic solution, 30 minutes at 37° C.
  Corrected % Inhibition: No Inhibition

## tyrocidin
[2]
  ΔOD, 540 nm after 30 Minutes: 0.842
[3]
  ΔOD, 620 nm after 30 Minutes: 1.054
[4]
  ΔOD, 620 nm after 30 Minutes: 0.048
[5]
  differentiation between viable gram-positive and gram-negative bacteria, in words: can be used with RIND XXIX to differentiate between viable gram-positive and gram-negative bacteria
[6]
  Δ Fluorescence (30 Minutes): > 4000
[7]
  ΔOD, 620 nm after 30 Minutes: 0.941
[8]
  ΔOD, 620 nm after 30 Minutes: 0.983
[9]
  Δ Fluorescence (30 Minutes): > 4000
[10]
  ΔOD, 620 nm after 30 Minutes: 0.074
[11]
  Δ Fluorescence (30 Minutes): > 4000
[12]
  ΔOD, 620 nm after 30 Minutes: 0.999
[13]
  ΔOD, 540 nm after 30 Minutes: 0.748
[14]
  Δ Fluorescence (30 Minutes): 0880
[15]
  ΔOD, 540 nm after 30 Minutes: 0.778
[16]
  ΔOD, 540 nm after 30 Minutes: 0.692
[17]
  ΔOD, 540 nm after 30 Minutes: 0.048
[18]
  ΔOD, 540 nm after 30 Minutes: 0.113
[19]
  ΔOD, 620 nm after 30 Minutes: 0.819
[20]
  Δ Fluorescence (30 Minutes): > 4000
[21]
  ΔOD, 540 nm after 30 Minutes: 1.207
[22]
  Δ Fluorescence (30 Minutes): 1834
[23]
  Δ Fluorescence (30 Minutes): > 4000

## virginiamycin
[1]; Test Method 2 (cells preincubated with 50 μl antibiotic solution 30 minutes, centrifuged, pellet assayed), S. aureus
  Corrected % Inhibition: No Inhibition
